Experimental data as given in US9459250B2, “Use of T1R3 venus flytrap region polypeptide to screen for taste modulators” (SENOMYX, INC., priority 2003, dated 2016).
Entries after “also recorded” stand apart in the source; their conditions may differ. Where two headings read alike, the source gives them in different places. Blank lines part the entries; values can stand above or below the molecule they belong to. Where a SMILES comes first, the peptide text is derived from it.

How the values were obtained:
[1] = test system: endogenous muscarinic acetylcholine receptor; assay: Endogenous muscarinic acetylcholine receptor response in HEK cells; type: cell-based; details: carbachol
From the text: (§1) “Detection thresholds” are defined as the lower limit of detectable tastants. The detection threshold values were averaged over four trials for three subjects. […] The activities in B, C, E and F represent the mean±SE of fold increases in fluorescence intensities for four recorded wells. The dose-responses in B, C, E and F were reproduced at least 6 times independently.

[2] = Human taste detection thresholds in the presence of lactisole; type: in vivo; details: millimolar (1 and 2 mM) lactisole, human subjects
From the text: as §1
The present inventors then evaluated the effect of lactisole on human umami taste.

[3] = target: mT2R5 (Mus musculus (Mouse), UniProt Q9JKT4); assay: Mouse bitter receptor mT2R5 transiently expressed in HEK cells; type: cell-based
Chain of mT2R5 (Q9JKT4 whole entry): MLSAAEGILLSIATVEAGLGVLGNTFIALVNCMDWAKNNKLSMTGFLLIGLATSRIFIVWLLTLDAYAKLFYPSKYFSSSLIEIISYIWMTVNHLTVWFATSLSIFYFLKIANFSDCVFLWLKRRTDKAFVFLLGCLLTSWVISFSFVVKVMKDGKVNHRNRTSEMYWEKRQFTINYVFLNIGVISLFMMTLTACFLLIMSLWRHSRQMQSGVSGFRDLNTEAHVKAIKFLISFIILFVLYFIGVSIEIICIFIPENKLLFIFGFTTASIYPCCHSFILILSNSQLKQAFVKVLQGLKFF
From the text: As was the case for the T1R2/T1R3 receptor, lactisole inhibition of the T1R1/T1R3 response to umami taste stimuli was reversible following washout and restimulation.

[4] = target: T1, T1R1/T1R3 (Homo sapiens (Human), UniProt Q7RTX0+Q7RTX1); assay: FLIPR dose responses of human T1R1/T1R3 stable cell line with modulators; type: cell-based; details: for effect of control sweeteners on activities of T1R1/T1R3 umami taste receptor: [Steviocide]=0.5 mM, [Saccharin]=1 mM, glutamate and glutamate/IMP dose responses
T1 sequence (Q7RTX1 21-841): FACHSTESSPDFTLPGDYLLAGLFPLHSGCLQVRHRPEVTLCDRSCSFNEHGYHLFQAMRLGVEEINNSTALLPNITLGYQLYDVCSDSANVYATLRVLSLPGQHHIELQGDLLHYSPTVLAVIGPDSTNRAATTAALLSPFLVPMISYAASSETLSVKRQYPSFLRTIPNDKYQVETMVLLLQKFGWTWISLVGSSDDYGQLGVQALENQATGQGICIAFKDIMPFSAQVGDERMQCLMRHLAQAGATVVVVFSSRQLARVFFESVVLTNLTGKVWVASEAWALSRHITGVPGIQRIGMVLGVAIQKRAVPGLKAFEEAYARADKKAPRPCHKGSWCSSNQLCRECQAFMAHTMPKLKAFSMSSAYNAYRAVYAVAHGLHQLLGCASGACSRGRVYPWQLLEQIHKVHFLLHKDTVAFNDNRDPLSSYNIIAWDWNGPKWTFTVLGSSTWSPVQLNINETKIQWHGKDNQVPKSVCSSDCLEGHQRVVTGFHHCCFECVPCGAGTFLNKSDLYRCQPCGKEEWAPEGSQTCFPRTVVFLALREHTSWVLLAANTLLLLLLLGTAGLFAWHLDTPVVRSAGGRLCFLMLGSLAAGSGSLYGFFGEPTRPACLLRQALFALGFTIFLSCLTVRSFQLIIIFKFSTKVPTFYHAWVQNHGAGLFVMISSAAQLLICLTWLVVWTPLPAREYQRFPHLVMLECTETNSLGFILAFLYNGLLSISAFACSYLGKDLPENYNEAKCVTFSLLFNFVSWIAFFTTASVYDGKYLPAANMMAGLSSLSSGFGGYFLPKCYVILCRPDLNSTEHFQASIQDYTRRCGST
T1 sequence (Q7RTX0 21-852 C757R): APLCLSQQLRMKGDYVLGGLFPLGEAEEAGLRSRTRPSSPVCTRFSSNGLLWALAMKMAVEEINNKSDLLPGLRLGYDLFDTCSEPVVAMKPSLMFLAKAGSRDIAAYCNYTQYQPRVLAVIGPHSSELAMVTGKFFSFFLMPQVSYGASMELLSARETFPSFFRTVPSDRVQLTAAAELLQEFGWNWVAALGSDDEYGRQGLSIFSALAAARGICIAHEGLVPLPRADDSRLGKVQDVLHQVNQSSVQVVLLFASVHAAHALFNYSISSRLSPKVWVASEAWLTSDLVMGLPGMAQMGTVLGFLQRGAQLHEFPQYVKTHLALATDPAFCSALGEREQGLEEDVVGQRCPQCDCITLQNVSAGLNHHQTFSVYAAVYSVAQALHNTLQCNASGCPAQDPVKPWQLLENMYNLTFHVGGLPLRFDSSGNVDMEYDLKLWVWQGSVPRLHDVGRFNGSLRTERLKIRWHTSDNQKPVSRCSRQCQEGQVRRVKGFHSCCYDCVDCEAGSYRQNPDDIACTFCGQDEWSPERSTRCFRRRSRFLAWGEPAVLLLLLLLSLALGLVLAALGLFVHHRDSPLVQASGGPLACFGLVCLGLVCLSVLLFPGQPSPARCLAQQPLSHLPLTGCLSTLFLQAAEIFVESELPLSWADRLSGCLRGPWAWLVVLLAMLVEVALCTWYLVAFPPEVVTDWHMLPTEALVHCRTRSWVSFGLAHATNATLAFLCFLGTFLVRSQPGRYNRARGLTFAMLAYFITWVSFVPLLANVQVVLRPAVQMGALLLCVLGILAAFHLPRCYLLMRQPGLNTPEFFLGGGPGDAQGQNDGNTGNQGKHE
From the text: as §1
Human cell lines that stably co-express human T1R2/T1R3 or human T1R1/T1R3 were generated by transfecting linearized PEAK10-derived (Edge Biosystems) vectors and pcDNA 3.1/ZEO-derived (Invitrogen) vectors respectively containing hT1R1 or hT1R2 expression construct (plasmid SAV2485 for T1R1, SAV2486 for T1R2) and hT1R3 (plasmid SXV550 for T1R3) into a Gα15 expressing cell line. […] Following SAV2485/SXV550 and SAV2486/SXV550 transfections, puromycin-resistant and zeocin-resistant colonies were selected, expanded, and tested by calcium imaging for responses to sweet or umami taste stimuli. Cells were selected in 0.0005 mg/ml puromycin (CALBIOCHEM) and 0.1 mg/ml zeocin (Invitrogen) at 37° C. in low-glucose DMEM supplemented with GlutaMAX, 10% dialyzed FBS, and 0.003 mg/ml blasticidin. Resistant colonies were expanded, and their responses to sweet taste stimuli evaluated by Fluorescence microscopy. For automated fluorimetric imaging on VIPR-II instrumentation (Aurora Biosciences), T1R2/T1R3 stable cells were first seeded onto 96-well plates (approximately 100,000 cells per well).

[5] = target: human sweet receptor (Homo sapiens (Human), UniProt Q7RTX0+Q8TE23); assay: Dose responses of human sweet receptor with lactisole; type: cell-based; details: read-out: EC50 of sweetener
Chain of human sweet receptor (Q8TE23 other isoform, or with tags, fused parts or gaps): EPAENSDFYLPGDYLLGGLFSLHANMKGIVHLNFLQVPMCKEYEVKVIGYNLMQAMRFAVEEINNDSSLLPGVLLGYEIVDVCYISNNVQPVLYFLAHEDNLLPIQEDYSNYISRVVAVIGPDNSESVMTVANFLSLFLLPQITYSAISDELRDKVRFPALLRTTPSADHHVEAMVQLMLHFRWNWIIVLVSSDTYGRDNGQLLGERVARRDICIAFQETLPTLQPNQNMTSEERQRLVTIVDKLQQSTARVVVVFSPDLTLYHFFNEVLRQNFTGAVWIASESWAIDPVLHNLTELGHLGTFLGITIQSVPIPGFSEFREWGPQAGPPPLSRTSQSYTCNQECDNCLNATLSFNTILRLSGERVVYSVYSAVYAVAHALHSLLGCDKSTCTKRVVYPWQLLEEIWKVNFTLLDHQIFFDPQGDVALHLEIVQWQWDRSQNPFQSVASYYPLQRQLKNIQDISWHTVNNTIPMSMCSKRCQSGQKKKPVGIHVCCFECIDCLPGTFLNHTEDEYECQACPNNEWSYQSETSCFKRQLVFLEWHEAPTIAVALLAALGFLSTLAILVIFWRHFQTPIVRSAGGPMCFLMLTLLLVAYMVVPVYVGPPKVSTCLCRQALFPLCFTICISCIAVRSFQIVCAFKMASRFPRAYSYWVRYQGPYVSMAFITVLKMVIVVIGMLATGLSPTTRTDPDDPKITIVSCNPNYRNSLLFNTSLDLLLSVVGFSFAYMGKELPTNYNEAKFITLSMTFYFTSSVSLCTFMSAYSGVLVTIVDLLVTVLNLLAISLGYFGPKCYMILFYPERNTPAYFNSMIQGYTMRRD
Chain of human sweet receptor (Q7RTX0 21-852 C757R): as the sequence (Q7RTX0 21-852 C757R) above
From the text: Values represent the mean±SE for four independent responses.

[6] = target: T1, T1R1/T1R3; assay: Umami FLIPR assay, HEK-Gα15 clone I-17 inducibly expressing T1R1/T1R3; type: cell-based; details: for EC50: Table 1 Umami Amides; for activation of T1R1/T1R3 receptor by L-amino acids: clone I-17, with and without IMP
Description: A dose-dependent response curve was determined for a compound, and the compound concentration corresponding to 50% of the maximal response was derived from the curve, in one example.
Regarding umami tastants and enhancers, scores of their activities can be given as percentage of the maximum MSG intensity (%). In compound dose response, an EC50 can be calculated to reflect the potency of the compound as umami agonist.
(§2) HEK-Gα15 cells were engineered to inducibly express T1R1/T1R3 using the GeneSwitch system (Invitrogen). pGene-derived zeocin-resistant expression vectors for human T1R1 and T1R3 (plasmid SXV603 for T1R1 and SXV611 for T1R3) and a puromycin-resistant pSwitch-derived vector that carries the GeneSwitch protein (plasmid SXV628) were linearized and cotransfected into the HEK-Gα15 cell line. Zeocin-resistant and puromycin-resistant colonies were selected, expanded, induced with variable amounts of mifepristone, and tested by calcium imaging for responses to umami taste stimuli. […] After replacement with 50 μl PBS, stimulation was performed at room temperature by the addition of 50 μl PBS supplemented with different stimuli. The maximal fluorescence from four independent determinations were averaged, corrected for background fluorescence measured prior to compound addition, and normalized to the response to 0.002 mM ionomycin (CALBIOCHEM).

[7] = target: hT1R2/hT1R3 (Homo sapiens (Human), UniProt Q7RTX0+Q8TE23); assay: Sweet FLIPR assay, hT1R2/hT1R3-HEK293-Gα15 S-9 cells; type: cell-based; details: Table 5 Sweet Enhancer Amides
Chain of hT1R2/hT1R3 (Q8TE23 other isoform, or with tags, fused parts or gaps): as the sequence (Q8TE23 other isoform, or with tags, fused parts or gaps) above
Chain of hT1R2/hT1R3 (Q7RTX0 21-852 C757R): as the sequence (Q7RTX0 21-852 C757R) above
Description: Compounds were initially selected based on their activity on the hT1R2/hT1R3-HEK293-Gα15 cell line (Li, et al. vide supra). Activity was determined using an automated fluorometric imaging assay on a FLIPR instrument (Fluorometric Intensity Plate Reader, Molecular Devices, Sunnyvale, Calif.) (designated FLIPR assay). […] S-9 cells were grown for 24 hours at 37° C. S-9 cells were then loaded with the calcium dye Fluo-3AM (Molecular Probes, Eugene, Oreg.), 4 μM in a phosphate buffered saline (D-PBS) (Invitrogen, Carlsbad, Calif.), for 1 hour at room temperature. After replacement with 25 μl D-PBS, stimulation was performed in the FLIPR instrument and at room temperature by the addition of 25 μl D-PBS supplemented with different stimuli at concentrations corresponding to twice the desired final level.
For dose-responses analysis, stimuli were presented in duplicates at 10 different concentrations ranging from 60 nM to 30 μM. Activities were normalized to the response obtained with 400 mM D-fructose, a concentration that elicits maximum receptor response. Ec50s were determined using a non-linear regression algorithm (using Senomyx, Inc. software), where the Hill slope, bottom asymptotes and top asymptotes were allow to vary.

[8] = target: T1, T1R1/T1R3; assay: Umami enhancement assay: MSG dose response with and without compound; type: cell-based; details: Table 1; compound @ 1 uM
Description: In enhancement assay experiments, a MSG dose response was run and a second MSG dose response was run with a certain amount of candidate compound at every MSG concentrations at the same time. Then, the EC50 ratio is calculated based on the following definitions: EC50 Ratio=EC50(MSG)/EC50(MSG+[Compound])
wherein “[compound]” refers to the concentration of compound used to elicit (or enhance or potentiate) the MSG dose response. Those concentrations can vary from a pM to an mM, more preferred, from a low nM to μM.
as §2

[9] = test system: HEK293-Gα15 cells; assay: FLIPR assay on HEK293-Gα15 cells not expressing the human sweet receptor; type: cell-based
From the text: In order to determine the dependency of hT1R2/hT1R3 for the cell response to different stimuli, selected compounds were subjected to a similar analysis on HEK293-Gα15 cells (not expressing the human sweet receptor).

[10] = target: T1, T1R1/T1R3; assay: Calcium imaging of HEK-Gα15 cells transiently transfected with human T1R1/T1R3; type: cell-based

effect on mouse bitter receptor mT2R5 [3]: no effect
SMILES: COc1ccc(OC(C)C(=O)O)cc1 (stereo not drawn) [lactisole, Lactisole]
effect on endogenous muscarinic acetylcholine receptor response [1]: not inhibited; also recorded: no effect
detection thresholds for sweet, umami and salt taste stimuli [2]: dramatically increased detection thresholds for sweet and umami but not salt taste stimuli

effect of other sweeteners on human T1R1/T1R3 activities [4]: no effect
SMILES: O=C1NS(=O)(=O)c2ccccc21 [saccharin]
effect of control sweeteners on activities of T1R1/T1R3 umami taste receptor [4]: do not affect

EC50 ([5]; 0 μM lactisole): 19400 ± 900 µM
EC50 ([5]; 10 μM lactisole): 24700 ± 1000 µM
EC50 ([5]; 20 μM lactisole): 31300 ± 300 µM
effect of other sweeteners on human T1R1/T1R3 activities [4]: no effect
SMILES: OC[C@H]1O[C@@](CO)(O[C@H]2O[C@H](CO)[C@@H](O)[C@H](O)[C@H]2O)[C@@H](O)[C@@H]1O [sucrose]

effect of other sweeteners on human T1R1/T1R3 activities [4]: no effect
SMILES: N[C@H](Cc1c[nH]c2ccccc12)C(=O)O [D-tryptophan]

EC50 [6]: 0.33 µM
SMILES: CCCC(CCC)NC(=O)c1cccc(C(C)(F)F)c1 [Compound A70]

effect of other sweeteners on human T1R1/T1R3 activities [4]: no effect
SMILES: COC(=O)[C@H](Cc1ccccc1)NC(=O)[C@@H](N)CC(=O)O [aspartame] (H-Asp-Phe-OMe)

EC50 [7]: 3.38 µM
SMILES: COc1cccc2c1CCCC2NC(=O)c1cc(O)ccc1O (stereo not drawn) [Compound E18, 2,5-dihydroxy-N-(5-methoxy-1,2,3,4-tetrahydronaphthalen-1-yl)benzamide]

EC50 [6]: 0.35 µM
SMILES: CC[C@@H](C)[C@@](C)(NC(=O)c1ccc2c(c1)OCO2)C(=O)OC [Compound A42]

EC50 [6]: 0.91 µM
Ec50 ratio (vs. MSG) [8]: 4.51
SMILES: CCCC(CCC)NC(=O)c1cc2cc(C)ccc2o1 [Compound A10]

EC50 [6]: 0.53 µM
SMILES: COC(=O)[C@@H](CCSC)NC(=O)c1ccc(OC)c(C)c1 [Compound A86]

EC50 [6]: 0.53 µM
SMILES: CCCC(CCC)NC(=O)c1cccc(OC)c1 [Compound A84]

EC50 [6]: 1.83 µM
SMILES: CCCC(CC)NC(=O)c1ccc2c(c1)CCO2 (stereo not drawn) [Compound A53]

SMILES: O=C(CO)[C@@H](O)[C@H](O)[C@H](O)CO [D-Fructose, D-fructose]
functional response in FLIPR assay [9]: do not show any functional response

SMILES: N[C@@H](CCC(=O)O)C(=O)O [L-glutamate, reference compound]
activation of T1R1/T1R3 receptor by L-amino acids [6]: significantly activated
percentage of cells that responded ([6]; induced cells (inducible T1R1/T1R3 expression)): approximately 80%
percentage of cells that responded ([10]; transiently transfected cells): approximately 10%

effect of compound alone on T1R1/T1R3 ([4]; alone): no effect
effect on T1R1/T1R3 activity in the presence of L-glutamate ([4]; threshold level of L-glutamate (4 mM)): enhanced the activity of the receptor
SMILES: O=S(=O)(O)NC1CCCCC1 [cyclamate]

EC50 [6]: 0.29 µM
Ec50 ratio (vs. MSG) [8]: 10.75
SMILES: CCC[C@@H](NC(=O)c1ccc(OC)c(Cl)c1)C(=O)OC [Compound A67]

EC50 [6]: 0.88 µM
SMILES: COC(=O)[C@@H](CC(C)C)NC(=O)c1ccc2c(c1)OCO2 [Compound A45]

SMILES: C=C1C[C@@]23CC[C@H]4[C@@](C)(CCC[C@@]4(C)C(=O)O[C@@H]4O[C@H](CO)[C@@H](O)[C@H](O)[C@H]4O)[C@@H]2CC[C@]1(O[C@@H]1O[C@H](CO)[C@@H](O)[C@H](O)[C@H]1O[C@@H]1O[C@H](CO)[C@@H](O)[C@H](O)[C@H]1O)C3 [Steviocide, stevioside]
effect of control sweeteners on activities of T1R1/T1R3 umami taste receptor [4]: do not affect

EC50 [6]: 1.69 µM
SMILES: COC(=O)C(NC(=O)c1ccc2oc(C)nc2c1)C(C)C(C)C (stereo not drawn) [Compound A28]

EC50 [7]: 8.09 µM
SMILES: Cc1oncc1C(=O)N[C@@H]1CCCc2ccccc21 [Compound E26, (R)-5-methyl-N-(1,2,3,4-tetrahydronaphthalen-1-yl)isoxazole-4-carboxamide]

EC50 [6]: 0.61 µM
SMILES: CCCC[C@@H](NC(=O)c1ccc2c(c1)OCO2)C(=O)OC [Compound A44]

SMILES: N[C@@H](CC(=O)O)C(=O)O [L-aspartate, reference compound]
activation of T1R1/T1R3 receptor by L-amino acids [6]: significantly activated

EC50 [6]: 1.37 µM
SMILES: COc1ccc(CNC(O)c2ccccc2-c2ccccc2)c(OC)c1 (stereo not drawn) [Compound A104]

EC50 [6]: 1.36 µM
SMILES: COC(=O)[C@H]1CCCC[C@H]1NC(=O)c1ccc(OC)c(Cl)c1 [Compound A103]

EC50 [7]: 1.39 µM
SMILES: Cc1cc(C)c(C(=O)NC2CCCCCC2)c(C)c1 [Compound E49, N-cycloheptyl-2,4,6-trimethylbenzamide]

SMILES: N[C@@H](CCC(=O)O)C(=O)O [glutamate]
maximal percentage of responding cells ([10]; glutamate alone): approximately 5%
maximal percentage of responding cells ([10]; glutamate plus 0.2 mM IMP): approximately 10%

EC50 [6]: 1.48 µM
SMILES: COC(=O)[C@@H](CC(C)C)NC(=O)c1ccc2nc(C)oc2c1 [Compound A25]

EC50 ([5]; 0 μM lactisole): 370 ± 20 µM
EC50 ([5]; 10 μM lactisole): 600 µM
EC50 ([5]; 20 μM lactisole): 940 ± 80 µM
SMILES: N[C@H](Cc1c[nH]c2ccccc12)C(=O)O [D-Trp, D-tryptophan]
